We go through three molecules from patent US20130230460A1, “USE OF CYANINE DYES FOR THE DETECTION OF TAU FOR DIAGNOSIS OF EARLY-STAGE TAUOPATHIES” (GE HEALTHCARE LIMITED, priority 2010, published 2013).

Experiment [1] deals with T1, tau aggregates (Tau-412) (Homo sapiens, UniProt P10636).
T1 construct: purchased Stratech
Kind of experiment: In vitro binding assay with aggregated tau (fluorescence). To be noted: for Kd: aggregated tau 10 μg/sample, 1 h at RT, triplicate; for Selectivity Tau: Aβ1-40: ratio of Kd Aβ1-40 to Kd tau. How it is done: Tau protein (Tau-412 with 2 nucleotide-binding motifs and 4 repeat binding regions, 42.9 kDa, 1 mg/ml, Stratech) was incubated in the presence of heparin (0.1 mg/ml) for 72 h at 37° C. with continuous shaking to generate tau aggregates.
(§1) The two test compounds 18 (see Example 6) and 20 (see Example 5), were dissolved and serially diluted in DMSO. Samples with aggregated tau and Aβ1-40 (10 μg/sample) were incubated with a serial dilution of each test compound (concentration range 1 nM-100 μM) in 96-well plates for 1 h at RT. Following incubation, samples were transferred to spin column plates (Thermo Fisher) and then centrifugated for 2 min at 1,500×g to remove free compound from the samples. Finally, the samples were transferred to black 96-well plates, and the fluorescence intensity measured at […] using a Tecan plate reader. All experiments were performed in triplicate. Kd values for each compound was calculated by fitting the data to a non-linear binding curve using Prism (GraphPad).

Experiment [2] concerns the target T2, Aβ1-40 aggregates (Homo sapiens, UniProt P05067).
T2 construct: Aβ1-40 protein (4.3 kDa, 1 mg/ml, Invitrogen); purchased Invitrogen
Kind of experiment: In vitro binding assay with aggregated Aβ1-40 (fluorescence). To be noted: aggregated Aβ1-40 10 μg/sample, 1 h at RT, triplicate. The protocol:
as §1, with “Aβ1-40 protein (4.3 kDa, 1 mg/ml, Invitrogen) was incubated at room temperature (RT) for 72 h with continuous shaking to generate Aβ1-40 aggregates. The two” for “The two”

Experiment [3] has as its system insoluble tau aggregates. The note with it: J Med Chem, 2009, 52, 3539; cited from earlier work.

T1 sequence (P10636 1-412 isoform P10636-7): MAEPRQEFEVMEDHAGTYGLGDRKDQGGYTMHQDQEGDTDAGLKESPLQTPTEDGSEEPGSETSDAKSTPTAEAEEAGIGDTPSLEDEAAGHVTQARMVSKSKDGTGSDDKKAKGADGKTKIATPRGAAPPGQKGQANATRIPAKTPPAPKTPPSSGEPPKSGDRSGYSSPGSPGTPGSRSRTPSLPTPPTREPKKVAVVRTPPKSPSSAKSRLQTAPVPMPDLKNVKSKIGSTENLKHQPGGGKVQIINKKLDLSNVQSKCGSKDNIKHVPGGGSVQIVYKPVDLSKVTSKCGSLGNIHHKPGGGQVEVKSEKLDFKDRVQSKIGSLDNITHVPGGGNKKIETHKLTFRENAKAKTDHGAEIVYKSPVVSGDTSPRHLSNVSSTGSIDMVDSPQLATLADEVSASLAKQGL
T2 sequence (P05067 672-711 limits assumed): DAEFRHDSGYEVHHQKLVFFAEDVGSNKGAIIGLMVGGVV

A word on the Kd: it is the concentration at which binding is half-saturated. A low value points to a tighter complex. As to `COc1ccc2c(c1)N(CCF)/C(=C/C(C)=C/c1sc3ccc(OC)cc3[n+]1CCF)S2` [Compound 18, 3-(2-Fluoroethyl)-2-((1E,3Z)-3-(3-(2-fluoroethyl)-5-methoxybenzo[d]thiazol-2(3H)-ylidene)-2-methylprop-1-en-1-yl)-5-methoxybenzo[d]thiazol-3-ium], in experiment [1], the “Selectivity for aggregated tau compared to Aβ1-40 aggregates (in words)” value is “highly selective”, binding was put at a Kd of 0.00088 ± 0.0009 µM and the “Selectivity Tau: Aβ1-40” value was 33,863. Moreover, binding in experiment [2] was put at a Kd of 29.8 ± 21.3 µM.

For `COc1ccc2c(c1)N(CCO)/C(=C/C(C)=C/c1sc3ccc(OC)cc3[n+]1CCF)S2` [Compound 20, 3-(2-Fluoroethyl)-2-((1E,3Z)-3-(3-(2-hydroxyethyl)-5-methoxybenzo[d]thiazol-2(3H)-ylidene)-2-methylprop-1-en-1-yl)-5-methoxybenzo[d]thiazol-3-ium], in experiment [1], the “Selectivity for aggregated tau compared to Aβ1-40 aggregates (in words)” value is on record as “highly selective”; the affinity, expressed as Kd, was 0.00075 ± 0.00059 µM; the “Selectivity Tau: Aβ1-40” value is 20,800. The Kd in experiment [2] was determined as 15.6 ± 8.1 µM.

On to `CCC(/C=C1\Sc2ccc(OC)cc2N1CCO)=C\c1sc2ccc(OC)cc2[n+]1CCO` [Compound N744], for which the “Tau aggregation inhibition (in words)” value in experiment [3] was “potent tau aggregation inhibitors”.
